# Patent publication US8410150B2, “Inhibitors of carnitine palmitoyltransferase and treating cancer” (University Health Network, priority 2007, dated 2013)
# Target: T1, human CPT1A (Homo sapiens, UniProt P50416)
# T1 construct: made in house; host or cells: Saccharomyces cerevisiae (pESC-trp) or cultured mammalian cells (pCDNA3.1); mitochondrial extract
# T1 sequence (P50416 1-773): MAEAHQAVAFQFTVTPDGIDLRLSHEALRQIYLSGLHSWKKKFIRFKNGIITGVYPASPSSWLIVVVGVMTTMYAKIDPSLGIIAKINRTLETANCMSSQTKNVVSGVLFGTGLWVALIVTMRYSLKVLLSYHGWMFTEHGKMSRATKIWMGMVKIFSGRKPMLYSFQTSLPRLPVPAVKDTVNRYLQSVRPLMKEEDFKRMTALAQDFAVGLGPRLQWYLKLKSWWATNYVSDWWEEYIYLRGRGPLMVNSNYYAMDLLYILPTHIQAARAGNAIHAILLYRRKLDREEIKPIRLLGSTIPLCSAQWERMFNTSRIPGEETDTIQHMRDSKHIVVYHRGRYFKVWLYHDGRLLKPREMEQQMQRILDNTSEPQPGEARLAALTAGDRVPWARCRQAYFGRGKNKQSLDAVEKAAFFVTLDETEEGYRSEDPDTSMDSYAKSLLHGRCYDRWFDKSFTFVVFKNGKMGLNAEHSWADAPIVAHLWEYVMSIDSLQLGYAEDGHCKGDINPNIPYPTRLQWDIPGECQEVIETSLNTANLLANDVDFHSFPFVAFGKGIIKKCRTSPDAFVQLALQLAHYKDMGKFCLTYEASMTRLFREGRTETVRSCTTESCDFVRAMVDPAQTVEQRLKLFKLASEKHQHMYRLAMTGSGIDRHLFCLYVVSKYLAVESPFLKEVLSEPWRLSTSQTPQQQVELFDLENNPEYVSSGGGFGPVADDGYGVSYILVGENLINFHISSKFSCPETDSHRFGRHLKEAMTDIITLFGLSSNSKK
# Assay: Human CPT1A LC/MS assay
# Type: biochemical
# Settings: human CPT1A LC/MS assay, dose response format
# From the text: Nucleotide sequences encoding human CPT1 enzymes were individually cloned into the yeast expression vector pESC-trp at the Cla1 (5′ terminus) and Pac1 (3′ terminus) restriction sites by PCR amplification of the open reading frame using oligonucleotide primers designed to encode the wild-type CPT1 protein sequence. Standard molecular biology techniques were used to transform and express the CPT1 proteins in the yeast Saccharomyces cerevisiae. The yeast cells were lysed by enzymatic degradation of the cell wall by Zymolase, and the mitochondria were isolated by standard biochemical techniques. The integrity of the isolated mitochondria was monitored by determining the activity of succinate dehydrogenase in the mitochondrial preparations. The mitochondrial extracts were stored at −80° C. in buffer containing 10 mM HEPES pH 7.4 and 250 mM sucrose.
# Human CPT1 (A, B, C) genes were additionally cloned into the pCDNA3.1 vector individually for expression in cultured mammalian cells. Cells expressing the exogenous CPT1A were identified and grown under standard conditions. Mammalian cells were harvested, and mitochondrial extracts prepared using standard biochemical methods. The mitochondrial extracts were stored at −80° C. in buffer containing 10 mM HEPES pH 7.4 and 250 mM sucrose.
# Assays were performed in 96-well plate format. Each 100 μL reaction contained 40 mM KCl, 50 mM TrisHCl pH 7.5, and 250 mM mannitol (Assay Buffer), and 1.6 μg protein of an extract, 20 μM palmitoyl-CoA, 50 μM L-carnitine, and 10 ug/mL BSA. Reactions were incubated at room temperature and stopped after 10 minutes by extraction with 200 μL of water saturated n-butanol containing myristoyl carnitine (500 nM) as an internal standard. The samples were thoroughly mixed, and the phases separated by centrifugation. Samples were prepared for analysis with a 10 fold dilution of the n-butanol phase containing the reaction product palmitoyl carnitine into a 50:50 (acetonitrile:water) solvent for analysis. […] of prepared sample was separated on a Phenomenex Jupiter 5μ C4 reverse-phase column using an Agilent 1100 HPLC with a gradient from 50% acetonitrile (0.5% acetic acid) to 100% acetonitrile and quantified by detection with a Bruker Esquire 3000plus mass spectrometer. The abundance of the palmitoyl carnitine product was determined relative to the internal standard and the actual quantity of palmitoyl carnitine can be determined from a standard curve prepared using the n-butanol solution containing the internal standard.
# Compounds were evaluated in two formats, a screening format, and a dose response format. The screening format was performed by adding 25 μL compound in 20% DMSO and Assay Buffer to 25 μL of extract containing […] and Assay Buffer, followed by a 10 minute incubation at room temperature. 50 μL of 40 μM palmitoyl-CoA in Assay Buffer was added to the reaction mixture, mixed and incubated for 10 minutes at room temperature. A negative control for activity was also performed where the carnitine was omitted from the reaction. A positive control for activity was also performed by omitting compound from the solution containing 20% DMSO and Assay Buffer. The reaction mixture was extracted and analyzed as described above. The inhibition by compound was determined by comparing the control relative activity to the relative activity observed in wells containing the compound. Relative activity was determined by subtracting the relative intensity (area palmitoyl carnitine/area myristoyl carnitine) observed in the negative control from the relative intensity observed in the experimental well, and dividing by the relative activity observed in the positive control.
# [formula] Compound characterization by dose response format was performed using the above described assay conditions and a 16 point compound titration in 2 fold compound dilution steps. The DMSO concentration was kept constant at 20% (v/v) for all compound concentrations.
row,Compound,IC50 [µM]
1,"C[N+](C)(C)C[C@@H](CC(=O)O)NC(=O)c1ccc(CS(=O)(=O)Cc2ccccc2)o1 [Example S61, (R)-3-(5-(benzylsulfonylmethyl)furan-2-carboxamido)-4-(trimethyl-ammonio)butanoate 2,2,2-trifluoroacetate]",100 to 1000
2,"C[N+](C)(C)C[C@@H](CC(=O)O)NC(=O)c1ccc(C#Cc2ccccc2)cc1 [Example S62, (R)-3-(4-(phenylethynyl)benzamido)-4-(trimethylammonio)butanoate 2,2,2-trifluoroacetate]",10 to 100
3,"C[N+](C)(C)C[C@@H](CC(=O)[O-])NC(=O)c1ccc(CCc2ccccc2)cc1 [Example S64, (R)-3-(4-phenethylbenzamido)-4-(trimethylammonio)butanoate]",10 to 100
4,"Cc1cc(COc2ccccc2)oc1C(=O)N[C@H](CC(=O)[O-])C[N+](C)(C)C [Example S65, (R)-3-(3-methyl-5-(phenoxymethyl)furan-2-carboxamido)-4-(trimethyl-ammonio)butanoate]",100 to 1000
5,"CCOc1ccc(OCc2ccc(C(=O)N[C@H](CC(=O)[O-])C[N+](C)(C)C)o2)cc1 [Example S68, (R)-3-(5-((4-ethoxyphenoxy)methyl)furan-2-carboxamido)-4-(trimethyl-ammonio)butanoate]",≤ 1
6,"Cc1cccc(OCc2ccc(C(=O)N[C@H](CC(=O)[O-])C[N+](C)(C)C)o2)c1 [Example S70, (R)-3-(5-(m-tolyloxymethyl)furan-2-carboxamido)-4-(trimethylammonio)-butanoate]",1 to 10
7,"C[N+](C)(C)C[C@@H](CC(=O)[O-])NC(=O)c1ccc(CSc2ccc(Cl)cc2)o1 [Example S71, (R)-3-(5-((4-chlorophenylthio)methyl)furan-2-carboxamido)-4-(trimethyl-ammonio)butanoate]",≤ 1

# The next lines start with the values.
row,IC50 [µM],Compound
1,100 to 1000,"C[N+](C)(C)C[C@@H](CC(=O)[O-])NC(=O)C(F)(F)c1ccccc1 [Example S69, (R)-3-(2,2-difluoro-2-phenylacetamido)-4-(trimethylammonio)butanoate]"
2,100 to 1000,"Cn1nc(C(F)(F)F)cc1-c1ccc(S(=O)(=O)N[C@H](CC(=O)O)C[N+](C)(C)C)s1 [Example S72, (R)-3-carboxy-N,N,N-trimethyl-2-(5-(1-methyl-3-(trifluoromethyl)-1H-pyrazol-5-yl)thiophene-2-sulfonamido)propan-1-aminium 2,2,2-trifluoroacetate]"
3,10 to 100,"CCCCCCCCOC(=O)Nc1ccc(S(=O)(=O)N[C@H](CC(=O)O)C[N+](C)(C)C)cc1 [Example S73, (R)-3-carboxy-N,N,N-trimethyl-2-(4-(octyloxycarbonylamino)phenyl-sulfonamido)propan-1-aminium 2,2,2-trifluoroacetate]"
4,> 2500,"CCOc1ccc(S(=O)(=O)N[C@H](CC(=O)O)C[N+](C)(C)C)cc1NC(=O)N1CCOCC1 [Example S74, (R)-3-carboxy-2-(4-ethoxy-3-(morpholine-4-carboxamido)phenyl-sulfonamido)-N,N,N-trimethylpropan-1-aminium 2,2,2-trifluoroacetate]"
5,100 to 1000,"Cc1cccc(C#Cc2ccc(S(=O)(=O)N[C@H](CC(=O)O)C[N+](C)(C)C)s2)c1 [Example S76, (R)-3-carboxy-N,N,N-trimethyl-2-(5-(m-tolylethynyl)thiophene-2-sulfonamido)propan-1-aminium 2,2,2-trifluoroacetate]"
6,10 to 100,"Cc1cccc(CCc2ccc(S(=O)(=O)N[C@H](CC(=O)O)C[N+](C)(C)C)s2)c1 [Example S77, (R)-3-carboxy-N,N,N-trimethyl-2-(5-(3-methylphenethyl)thiophene-2-sulfonamido)propan-1-aminium 2,2,2-trifluoroacetate]"
7,100 to 1000,"C[N+](C)(C)C[C@@H](CC(=O)O)NS(=O)(=O)c1ccc(C#Cc2ccccc2)s1 [Example S78, (R)-3-carboxy-N,N,N-trimethyl-2-(5-(phenylethynyl)thiophene-2-sulfonamido)propan-1-aminium 2,2,2-trifluoroacetate]"
